# From patent publication US7294501B2, “Geldanamycin-producing strains, uses thereof and methods of producing same” (priority 2003, dated 2007)
# Tested on: acidiscabies and caviscabies
# Test: Geldanamycin activity against other common scab causing species
# Assay type: cell-based
# Conditions: data not shown
compound,measurement,value
COC1=C2C[C@@H](C)C[C@H](OC)[C@H](O)[C@@H](C)/C=C(\C)[C@H](OC(N)=O)[C@@H](OC)/C=C\C=C(/C)C(=O)NC(=CC1=O)C2=O [Geldanamycin],activity against other common scab causing bacterial species,active
